Results from US20250281424A1 (New York Blood Center, Inc, priority 2020, published 2025).

Molecular target: T1, human PF4 (Homo sapiens, UniProt P02776)
T1 construct: PF4 is a 70 amino acid, lysine-rich 7.8 kDa platelet-specific protein; made in house; host or cells: Escherichia coli BL21DE3 pLysS (pT7-7) and/or Drosophila S2 cells
T1 sequence (P02776 32-101): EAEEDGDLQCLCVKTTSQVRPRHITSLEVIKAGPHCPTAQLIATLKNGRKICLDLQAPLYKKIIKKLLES
Test: Inhibition of PF4 tetramer formation (BS3 cross-linking, SDS-PAGE)
Assay type: biochemical
Conditions: for inhibition at 1 µM: 1 μM inhibitor; for inhibition at 1 µM / inhibition at 3 µM / inhibition at 5 µM / inhibition at 10 µM: read-out: % inhibition of PF4 tetramer formation at single concentration of inhibitor; for inhibition at 3 µM: 3 μM inhibitor (column A); for inhibition at 5 µM: 5 μM inhibitor; for inhibition at 10 µM: 10 μM inhibitor (column A); for IC50: read-out: IC50 of PF4 tetramer formation inhibition
In short: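 Recombinant human wild-type PF4 (E. coli-expressed, heparin-purified), 10 μg/ml in PBS, incubated with compound 15 min at 37° C or 60 min at room temperature, then cross-linked with 0.2 mM BS3 for 30 min at room temperature. Reducing 12% SDS-PAGE; bands quantified as % tetramer, trimer, dimer, monomer versus compound-free control.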

inhibition at 1 µM	inhibition at 3 µM	inhibition at 5 µM	inhibition at 10 µM	IC50	Structure (SMILES)
2%	27%				O=C(c1ccc2c(c1)C(=O)C(C(=O)[C@@H]1CCNC1)C2=O)c1ccc2c(c1)C(=O)C(C(=O)[C@H]1CCCN1)C2=O (stereo partly drawn) [Example 349, 5-{1,3-dioxo-2-[(3R)-pyrrolidine-3-carbonyl]-2,3-dihydro-1H-indene-5-carbonyl}-2-[(2R)-pyrrolidine-2-carbonyl]-2,3-dihydro-1H-indene-1,3-dione]
27%	52%				O=C(c1ccc2c(c1)C(=O)C(C(=O)CSc1ccncc1)C2=O)c1ccc2c(c1)C(=O)C(C(=O)CSc1ccncc1)C2=O (centres unmarked) [Example 289, 5-{1,3-dioxo-2-[2-(pyridin-4-ylsulfanyl)acetyl]-2,3-dihydro-1H-indene-5-carbonyl}-2-[2-(pyridin-4-ylsulfanyl)acetyl]-2,3-dihydro-1H-indene-1,3-dione]
17%	30%				CC(C)OC/C(O)=C1/C(=O)c2ccc(C(=O)c3ccc4c(c3)C(=O)/C(=C(/O)COC(C)C)C4=O)cc2C1=O [Example 380, 5-{1,3-dioxo-2-[2-(propan-2-yloxy)acetyl]-2,3-dihydro-1H-indene-5-carbonyl}-2-[2-(propan-2-yloxy)acetyl]-2,3-dihydro-1H-indene-1,3-dione]
21%	28%				CC(=O)OC[C@H]1O[C@@H](OC(C)=O)[C@H](NC(=O)C2C(=O)c3ccc(Oc4ccc5c(c4)C(=O)C(C(=O)N[C@H]4[C@H](OC(C)=O)O[C@H](COC(C)=O)[C@@H](OC(C)=O)[C@@H]4OC(C)=O)C5=O)cc3C2=O)[C@@H](OC(C)=O)[C@@H]1OC(C)=O (stereo partly drawn) [Example 399, [(2R,3S,4R,5R,6S)-3,4,6-tris(acetyloxy)-5-{5-[(1,3-dioxo-2-{[(2S,3R,4R,5S,6R)-2,4,5-tris(acetyloxy)-6-[(acetyloxy)methyl]oxan-3-yl]carbamoyl}-2,3-dihydro-1H-inden-5-yl)oxy]-1,3-dioxo-2,3-dihydro-1H-indene-2-amido}oxan-2-yl]methyl acetate]
22%	50%				O=C1c2ccc(S(=O)(=O)c3ccc4c(c3)C(=O)C(C(=S)NC3CC3)C4=O)cc2C(=O)C1C(=S)NC1CC1 (centres unmarked) [Example 329, N-cyclopropyl-5-{[2-(cyclopropylcarbamothioyl)-1,3-dioxo-2,3-dihydro-1H-inden-5-yl]sulfonyl}-1,3-dioxo-2,3-dihydro-1H-indene-2-carbothioamide]
5%	13%				CC[C@H](C)[C@H](NC(=O)C1C(=O)c2ccc(C(=O)c3ccc4c(c3)C(=O)C(C(=O)N[C@H](C(=O)OC)[C@@H](C)CC)C4=O)cc2C1=O)C(=O)OC (stereo partly drawn) [Example 332, methyl (2S,3S)-2-{[5-(2-{[(2S,3S)-1-methoxy-3-methyl-1-oxopentan-2-yl]carbamoyl}-1,3-dioxo-2,3-dihydro-1H-indene-5-carbonyl)-1,3-dioxo-2,3-dihydro-1H-inden-2-yl]formamido}-3-methylpentanoate]
7%	19%				COCCOCCNC(=O)C1C(=O)c2ccc(C#Cc3ccc4c(c3)C(=O)C(C(=O)NCCOCCOC)C4=O)cc2C1=O (centres unmarked) [Example 381, N-[2-(2-methoxyethoxy)ethyl]-5-[2-(2-{[2-(2-methoxyethoxy)ethyl]carbamoyl}-1,3-dioxo-2,3-dihydro-1H-inden-5-yl)ethynyl]-1,3-dioxo-2,3-dihydro-1H-indene-2-carboxamide]
34%	45%				O=C(c1ccc2c(c1)C(=O)C(C(=O)NCC1CCS(=O)(=O)C1)C2=O)c1ccc2c(c1)C(=O)C(C(=O)NCC1CCS(=O)(=O)C1)C2=O (centres unmarked) [Example 359, N-[(1,1-dioxo-1λ^6-thiolan-3-yl)methyl]-5-(2-{[(1,1-dioxo-1λ^6-thiolan-3-yl)methyl]carbamoyl}-1,3-dioxo-2,3-dihydro-1H-indene-5-carbonyl)-1,3-dioxo-2,3-dihydro-1H-indene-2-carboxamide]
25%	35%				CCNC(=O)C1C(=O)c2ccc(S(=O)(=O)c3ccc4c(c3)C(=O)C(C(=O)NCC)C4=O)cc2C1=O (centres unmarked) [Example 336, N-ethyl-5-{[2-(ethylcarbamoyl)-1,3-dioxo-2,3-dihydro-1H-inden-5-yl]sulfonyl}-1,3-dioxo-2,3-dihydro-1H-indene-2-carboxamide]
39%	74%			1.35 µM	CC(C)C[C@@H](N)C(=O)C1C(=O)c2ccc(Oc3ccc4c(c3)C(=O)C(C(=O)[C@H](N)CC(C)C)C4=O)cc2C1=O (stereo partly drawn) [Example 357, 2-[(2R)-2-amino-4-methylpentanoyl]-5-({2-[(2R)-2-amino-4-methylpentanoyl]-1,3-dioxo-2,3-dihydro-1H-inden-5-yl}oxy)-2,3-dihydro-1H-indene-1,3-dione]
22%	32%				O=C(NC1CC1)C1C(=O)c2ccc(C#Cc3ccc4c(c3)C(=O)C(C(=O)NC3CC3)C4=O)cc2C1=O (centres unmarked) [Example 300, N-cyclopropyl-5-{2-[2-(cyclopropylcarbamoyl)-1,3-dioxo-2,3-dihydro-1H-inden-5-yl]ethynyl}-1,3-dioxo-2,3-dihydro-1H-indene-2-carboxamide]

The next lines start with the compound.

Structure (SMILES)	inhibition at 1 µM	inhibition at 3 µM	inhibition at 5 µM	inhibition at 10 µM	IC50
CCC(=O)C1C(=O)c2ccc(Oc3ccc4c(c3)C(=O)C(C(=O)CC)C4=O)cc2C1=O (centres unmarked) [Example 323, 5-[(1,3-dioxo-2-propanoyl-2,3-dihydro-1H-inden-5-yl)oxy]-2-propanoyl-2,3-dihydro-1H-indene-1,3-dione]	7%	18%			
CC(C)C(=O)NCC(=O)C1C(=O)c2ccc(C(=O)c3ccc4c(c3)C(=O)C(C(=O)CNC(=O)C(C)C)C4=O)cc2C1=O (centres unmarked) [Example 187, 2-methyl-N-[2-(5-{2-[2-(2-methylpropanamido)acetyl]-1,3-dioxo-2,3-dihydro-1H-indene-5-carbonyl}-1,3-dioxo-2,3-dihydro-1H-inden-2-yl)-2-oxoethyl]propanamide]			88%	90%	2.6 µM
O=C(c1ccc2c(c1)C(=O)C(C(=O)NCC1CC1)C2=O)c1ccc2c(c1)C(=O)C(C(=O)NCC1CC1)C2=O (centres unmarked) [Example 76, N-(cyclopropylmethyl)-5-{2-[(cyclopropylmethyl)carbamoyl]-1,3-dioxo-2,3-dihydro-1H-indene-5-carbonyl}-1,3-dioxo-2,3-dihydro-1H-indene-2-carboxamide]					2.1 µM
CSCCCC(=O)C1C(=O)c2ccc(C(=O)c3ccc4c(c3)C(=O)C(C(=O)CCCSC)C4=O)cc2C1=O (centres unmarked) [Example 284, 2-[4-(methylsulfanyl)butanoyl]-5-{2-[4-(methylsulfanyl)butanoyl]-1,3-dioxo-2,3-dihydro-1H-indene-5-carbonyl}-2,3-dihydro-1H-indene-1,3-dione]				81%	10 µM
O=C(CCC(=O)C1C(=O)c2ccc(Oc3ccc4c(c3)C(=O)C(C(=O)CCC(=O)c3cccc(Cl)c3Cl)C4=O)cc2C1=O)c1cccc(Cl)c1Cl (centres unmarked) [Example 258, 2-[4-(2,3-dichlorophenyl)-4-oxobutanoyl]-5-({2-[4-(2,3-dichlorophenyl)-4-oxobutanoyl]-1,3-dioxo-2,3-dihydro-1H-inden-5-yl}oxy)-2,3-dihydro-1H-indene-1,3-dione]	18%	33%			
O=C(c1ccc2c(c1)C(=O)C(C(=O)[C@@H]1CCCN1C(=O)OCc1ccccc1)C2=O)c1ccc2c(c1)C(=O)C(C(=O)[C@@H]1CCCN1C(=O)OCc1ccccc1)C2=O (stereo partly drawn) [Example 125, benzyl (2S)-2-(5-{2-[(2S)-1-[(benzyloxy)carbonyl]pyrrolidine-2-carbonyl]-1,3-dioxo-2,3-dihydro-1H-indene-5-carbonyl}-1,3-dioxo-2,3-dihydro-1H-indene-2-carbonyl)pyrrolidine-1-carboxylate]			87%	93%	1.2 µM
COC(=O)CCCC(=O)C1C(=O)c2ccc(C(=O)c3ccc4c(c3)C(=O)C(C(=O)CCCC(=O)OC)C4=O)cc2C1=O (centres unmarked) [Example 225, methyl 5-{5-[2-(5-methoxy-5-oxopentanoyl)-1,3-dioxo-2,3-dihydro-1H-indene-5-carbonyl]-1,3-dioxo-2,3-dihydro-1H-inden-2-yl}-5-oxopentanoate]			87%	90%	3.2 µM
CCCCc1ccc(NC(=O)C2C(=O)c3ccc(S(=O)(=O)c4ccc5c(c4)C(=O)C(C(=O)Nc4ccc(CCCC)cc4)C5=O)cc3C2=O)cc1 (centres unmarked) [Example 102]			78%	100%	2.9 µM
O=C1c2ccc(S(=O)(=O)c3ccc4c(c3)C(=O)C(C(=O)[C@@H]3C[C@H]3C(=O)O)C4=O)cc2C(=O)C1C(=O)[C@@H]1C[C@H]1C(=O)O (stereo in doubt) [Example 223, (1R,2R)-2-[5-({2-[(1R,2R)-2-carboxycyclopropanecarbonyl]-1,3-dioxo-2,3-dihydro-1H-inden-5-yl}sulfonyl)-1,3-dioxo-2,3-dihydro-1H-indene-2-carbonyl]cyclopropane-1-carboxylic acid]			97%	100%	1.4 µM
O=C1CC(=O)c2cc(-c3ccc4c(c3)C(=O)CC4=O)ccc21 [Example 75, 1h,1′h,2h,2′h,3h,3′h-[5,5′-biindene]-1,1′,3,3′-tetrone]			54%	85%	
